Measurements published in publication PMC12498411, “Antidepressant-like Properties of a Selenium-Containing Pyridinium Salt Explored through In Vitro, In Vivo, and In Silico Approaches” (ACS Chemical Neuroscience, 2025).
Like-named read-outs stand apart in the source and are kept apart here.

Assays:
male Swiss mice [1] = experiment: Open field test (OFT) before the TST; format: in vivo, mouse; details: 3B 0.5–5 mg/kg i.g.; fluoxetine 20 mg/kg i.p.
Method: (§1) A dosage of 5 mg/kg (intragastric route, i.g., by gavage) was administered to all groups receiving the salts. […] The TST was conducted 30 min following drug administration, with the OFT being performed 4 min prior to the TST.
(§2) Following the selection of the most promising salt during screening (Compound 3B), an analysis of the compound’s time-response curve was conducted in the mouse TST. For this purpose, the animals were divided into five groups: (I) control (water; i.g.), (II) the group receiving compound 3B 15 min prior to TST, (III) the group receiving compound 3B 30 min before TST, (IV) the group receiving compound 3B 60 min before TST, and (V) the group receiving compound 3B 120 min before TST. The dosage of salt was standardized at 5 mg/kg (i.g). OFT was conducted 4 min prior to the TST.
(§3) After choosing a suitable preadministration time, the dose–response curve of the compound at this fixed time was analyzed. The animals were categorized into […]: I) a control group (administered water; i.g.) and groups II, III, IV and V) receiving compound 3B at doses of 0.5 mg/kg, 1 mg/kg, 2.5 mg/kg, and 5 mg/kg (i.g.), respectively. […] Thirty minutes postadministration, the animals underwent the TST. Four minutes prior to the TST, they underwent the OFT.
The aim of this behavioral test is to assess the locomotion and exploration behavior of the animals using an open field apparatus measuring 30 cm × 30 cm × 15 cm, constructed from plywood with a floor divided into nine quadrants, facilitating free movement for the animals. During the OFT, the animals were positioned in the center of the apparatus and subjected to a 5 min testing period, following the protocol outlined in literature. The number of quadrant crossings and rearings was recorded and quantified during testing phase.

male Swiss mice [2] = experiment: Tail suspension test (TST); format: in vivo, mouse
Method: A behavioral screening was conducted using the three salts to determine their potential antidepressant-like actions (n = 7–9 mice/group).
as §1, §2, §3
This test aims to assess depressive-like behavior and antidepressant-like action of therapies by measuring immobility. […] The test was conducted using a mouse suspension box made of wood, measuring 50 cm × 21 cm × 21 cm, designed to prevent any visual or physical interaction among the animals. A suspension bar was positioned atop the box, and the mouse’s tail was affixed to the bar using adhesive tape. The test duration was 6 min, during which the animal’s latency to the first immobility episode and the total duration of immobility (sec) were assessed.

rodent = details: literature value, cited from earlier work
[3] = tested on: cerebral lipid peroxidation; experiment: TBARS assay, SNP-induced lipid peroxidation in brain homogenate; format: biochemical, mouse; details: for Concentrations effective in reversing SNP-induced oxidative damage (TBARS): tested up to 500 μM
Method: (§4) Brains from mice of both sexes were used for in vitro assays, each performed in duplicate across three independent experiments (n = 3), conducted on different days.
The brain tissues were homogenized in a 50 mM Tris-HCl buffer at pH 7.4, using a 1:10 ratio (w/v). The freshly prepared homogenate was then centrifuged at 900g for 10 min, yielding a low-speed supernatant (S1). Lipid peroxidation was evaluated using the TBARS method as previously described. Lipid peroxidation was induced by 0.3 mM SNP. A 100 μL aliquot of S1 was incubated for 1 h at 37 °C in the presence of the compounds 3A, 3B, and 3C at concentrations ranging from 25 to 500 μM, and SNP or water (to control). The color reaction was initiated by adding 500 μL of a 0.8% thiobarbituric acid (TBA) solution, followed by 200 μL of 8.1% sodium dodecyl sulfate (SDS) and 500 μL of acetic acid (pH 3.4). The reaction mixture was incubated at 95 °C for 1 h. The absorbance was measured using a spectrophotometer at a wavelength of 532 nm. Trolox (100 μM), an antioxidant analogous to vitamin E, served as a positive control. The results were reported as nmol TBARS per gram of tissue. A parallel TBARS experiment was also conducted using a standard alkyl aryl selenide (2-((phenylselanyl)-methyl)-pyridine), dissolved in DMSO at the same concentrations tested, ranging from 25 to 500 μM.

protein carbonylation = experiment: Protein carbonylation assay, SNP-induced, brain homogenate; format: biochemical, mouse
Method: as §4
The evaluation of protein carbonylation was performed according to a previously established protocol, using freshly prepared brain homogenate diluted at a 1:8 ratio in Tris-HCl buffer. Test compounds (10 μL), ranging in concentrations from 25 to 200 μM, were individually introduced into separate test tubes. Trolox (100 μM) served as the standard antioxidant. The diluted brain homogenate (940 μL) was then added to all tubes, followed by SNP (1 mM) as the inducing oxidative agent (50 μL). The tubes were promptly incubated at 37 °C for 2 h. Following incubation, 2 M HCl was added to blank tubes (200 μL), while 10 mM 2,4-dinitrophenyl-hydrazine (DNPH) solution was added to test tubes (200 μL). The mixture was incubated for 1 h in darkness at room temperature, with intermittent stirring every 15 min to facilitate the color reaction. Subsequently, 500 μL of denaturation buffer, 1.5 mL of ethanol, and 1.5 mL of hexane were added to all tubes, which were then vigorously shaken for 40 s. The tubes were then centrifuged at 900g for 15 min, and the supernatant was carefully decanted. The resulting pellet was washed twice with 1 mL of ethanol/ethyl acetate solution (1:1). After allowing the pellet to dry air for 2 min, it was resuspended in 1 mL of denaturation buffer and subjected to spectrophotometric analysis at 370 nm. The findings were quantified as nmol carbonyl per gram of tissue.

[4] = design: method as in Prigol and colleagues; details: 500 mg/kg dissolved in oil, per oral; ref Prigol and colleagues; cited from earlier work
[5] = design: method as in Prigol and colleagues; details: ref Prigol and colleagues; cited from earlier work
[6] = cited from earlier work
female Swiss mice = tested on: female Swiss mice; design: method as in previously conducted by our research group; details: same methodology layout; ref previously conducted by our research group; cited from earlier work
MAO-A = molecular target: T1, MAO-A (Mus musculus, UniProt Q64133); experiment: Cerebral MAO-A activity, mitochondria-enriched mouse brain fraction (kynuramine, fluorimetric); format: biochemical
T1 construct: Mitochondria-enriched brain preparations were obtained in accordance with established methodology outlined in literature; from tissue; host or cells: mouse brain, mitochondria-enriched fraction
T1 sequence (Q64133 1-526): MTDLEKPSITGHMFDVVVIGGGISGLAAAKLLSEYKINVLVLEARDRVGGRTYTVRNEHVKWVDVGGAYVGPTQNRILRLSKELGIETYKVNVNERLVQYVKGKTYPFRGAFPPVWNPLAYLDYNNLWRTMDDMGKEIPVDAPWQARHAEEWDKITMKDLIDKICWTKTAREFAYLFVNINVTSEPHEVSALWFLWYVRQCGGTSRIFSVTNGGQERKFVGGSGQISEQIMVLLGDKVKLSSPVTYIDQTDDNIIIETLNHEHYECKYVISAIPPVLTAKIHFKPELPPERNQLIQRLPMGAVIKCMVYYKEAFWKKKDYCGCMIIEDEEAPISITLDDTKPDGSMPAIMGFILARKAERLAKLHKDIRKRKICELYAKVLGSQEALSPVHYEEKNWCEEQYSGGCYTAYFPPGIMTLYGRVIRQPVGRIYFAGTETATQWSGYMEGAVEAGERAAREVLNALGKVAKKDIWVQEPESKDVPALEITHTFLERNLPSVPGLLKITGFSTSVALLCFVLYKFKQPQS
Method: (§5) Mitochondria-enriched brain preparations were obtained in accordance with established methodology outlined in literature. The homogenate was prepared using the mouse brain tissue and a homogenization buffer (Na2PO4/KH2PO4/sucrose) at a ratio of 1:4 (w/v). The homogenate was centrifuged at 900g at 4 °C for 5 min. The resulting supernatant was separated and subjected to centrifugation at 12,500g for 15 min. The resulting pellet was resuspended in the homogenization buffer and subjected to a further round of centrifugation under identical conditions. Finally, the mitochondrial pellet obtained was reconstituted in an assay buffer solution (Na2PO4/KH2PO4/KCl). Protein concentration was estimated using the Bradford method and standardized as 1 mg/mL for the experiments.
(§6) MAO activity was assessed following the method outlined by Krajl, with some modifications by Matsumoto. Briefly, a 100 μL aliquot of the mitochondria-rich fraction was incubated at 37 °C for 5 min with specific MAO inhibitors: clorgyline (250 nM, a MAO-A inhibitor), or pargyline (250 nM, a MAO-B inhibitor). Then, 10 μL of each compound was introduced at varying concentrations (25–200 μM). Water (10 μL) was used in the control tubes. Afterward, the substrate, 20 μL of kynuramine dihydrobromide, was added to achieve a final concentration of 90 μM for MAO-A and 60 μM for MAO-B. The samples were incubated at 37 °C for 30 min. The reaction was halted by the addition of 300 μL of 10% trichloroacetic acid (TCA). After centrifuging at 16,000g for 15 min, an aliquot of 800 μL of the supernatant was mixed with 1 mL of 1 M sodium hydroxide (NaOH). The samples were measured using a fluorimeter with excitation at 315 nm and emission at 380 nm.

MAO-B = molecular target: T2, MAO-B (Mus musculus, UniProt Q8BW75); experiment: Cerebral MAO-B activity, mitochondria-enriched mouse brain fraction (kynuramine, fluorimetric); format: biochemical
T2 construct: Mitochondria-enriched brain preparations were obtained in accordance with established methodology outlined in literature; from tissue; host or cells: mouse brain, mitochondria-enriched fraction
T2 sequence (Q8BW75 1-520): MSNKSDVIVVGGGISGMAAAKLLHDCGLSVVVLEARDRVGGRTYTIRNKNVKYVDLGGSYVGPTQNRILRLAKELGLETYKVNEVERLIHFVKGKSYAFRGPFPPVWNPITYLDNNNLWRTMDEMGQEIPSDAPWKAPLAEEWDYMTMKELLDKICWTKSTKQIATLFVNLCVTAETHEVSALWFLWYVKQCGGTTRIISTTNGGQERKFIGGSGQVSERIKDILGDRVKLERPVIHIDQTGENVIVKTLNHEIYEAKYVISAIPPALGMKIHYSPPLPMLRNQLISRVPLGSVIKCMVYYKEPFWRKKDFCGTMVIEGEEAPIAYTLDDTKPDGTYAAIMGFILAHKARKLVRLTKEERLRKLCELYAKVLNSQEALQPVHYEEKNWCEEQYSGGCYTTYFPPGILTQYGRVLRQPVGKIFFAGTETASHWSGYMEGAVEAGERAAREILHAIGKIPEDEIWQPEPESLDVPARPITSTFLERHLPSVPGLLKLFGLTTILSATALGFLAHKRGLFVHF
Method: as §5, §6

[7] = salts 5 mg/kg i.g., fluoxetine 20 mg/kg i.p., 30 min before test

Compound: CNCCC(Oc1ccc(C(F)(F)F)cc1)c1ccccc1 (stereo not drawn) [Fluoxetine, reference compound]
- OFT number of rearings, dose–response experiment (male Swiss mice [1]): decreased rearings
- TST immobility time, positive control in dose–response experiment (male Swiss mice [2]; 20 mg/kg i.p., 30 min): effectively reduced the immobility time
- TST latency time, positive control in dose–response experiment (male Swiss mice [2]; 20 mg/kg i.p., 30 min): as also observed in the fluoxetine group
- TST latency time to first immobility episode, screening (male Swiss mice [2]; [7]): significantly increased latency time
- TST total immobility time, screening (male Swiss mice [2]; [7]): shorter total immobility times
- Reduction in rodent locomotor activity (rodent; 30 mg/kg): 89%

Compound: c1ccc([Se]Cc2ccccn2)cc1 [2-((phenylselanyl)methyl)pyridine, reference compound]
- Concentrations effective in reversing SNP-induced oxidative damage (TBARS) ([3]; mouse brain homogenate): 500 µM

Compound: CN(C)CC/C=C1\c2ccccc2CSc2ccccc21 [dothiepin]
- Reduction in rodent locomotor activity (rodent; 10 mg/kg): 73%

Compound: Cc1c(C)c2c(c(C)c1O)CCC(C)(C(=O)O)O2 (stereo not drawn) [Trolox, reference compound]
- Effect of positive control on SNP-induced TBARS ([3]; 100 μM): effectively reversed oxidative damage
- Effect of positive control on protein carbonylation (protein carbonylation; 100 μM): effective

Compound: c1ccc([Se][Se]c2ccccc2)cc1 [(PhSe)2, diphenyl diselenide]
- Selenium levels in plasma [4]: very low levels of selenium in plasma
- Solubility in isotonic phosphate buffer [5]: poor solubility in isotonic phosphate buffer

Compound: c1ccc([Se]c2c(-c3ccccc3)cn3ccccc23)cc1 [2-phenyl-1-(phenylselanyl)indolizine]
- Effective dose (previously studied related molecule) [6]: ≥ 10 mg/kg

Compound: O=C(C[n+]1ccccc1C[Se]c1ccccc1)c1ccc(Cl)cc1.[Br-] [Compound 3C, 1-(2-(4-chlorophenyl)-2-oxoethyl)-2-((phenylselanyl)methyl)pyridin-1-ium bromide]
- Signs of toxicity in acute oral toxicity study (female Swiss mice): no signs of toxicity
- IC50 ([3]; mouse brain homogenate, SNP-induced): 102 µM
- Concentrations effective in reversing SNP-induced oxidative damage (TBARS) ([3]; mouse brain homogenate): 50 to 500 µM
- IC50 (MAO-A): 77.6 µM
- Concentrations with significant inhibition of MAO-A activity (MAO-A; tested 25–200 μM, Dunnett vs control): ≥ 50 µM
- IC50 (MAO-B): 125 µM
- IC50 (protein carbonylation; mouse brain homogenate, SNP-induced, 25–200 μM): 111 µM

Compound: COc1ccc(C(CN(C)C)C2(O)CCCCC2)cc1 (stereo not drawn) [venlafaxine]
- Reduction in rodent locomotor activity (rodent; 50 mg/kg): 62%
